Source: US7465798B2, “Methods and compositions for selectin inhibition” (Wyeth, priority 2003, dated 2008)

Molecular target: T1, human P-selectin (Homo sapiens, UniProt P16109)
T1 construct: truncated form of human P-selectin comprised of the lectin and EGF domains (P-LE)
T1 sequence (P16109 42-198): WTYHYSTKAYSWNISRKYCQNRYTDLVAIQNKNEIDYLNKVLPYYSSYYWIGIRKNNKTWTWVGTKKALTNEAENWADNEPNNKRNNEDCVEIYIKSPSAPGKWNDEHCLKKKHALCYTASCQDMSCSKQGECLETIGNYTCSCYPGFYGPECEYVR
Test: Biacore inhibition of P-selectin binding to PSGL-1 (P-LE to immobilized SGP-3)
Conditions: at 1 mM
Protocol: Compounds of the invention can be assayed for selectin inhibitory activity using any of the procedures known in the art. One convenient procedure is the determination of IC50 values for inhibition of P-selectin binding to P-selectin glycoprotein ligand-1 (PSGL-1) using Biacore.
The Biacore 3000 is an instrument that uses surface plasmon resonance to detect binding of a solution phase analyte to an immobilized ligand on a sensor chip surface. The analyte sample is injected under flow using a microfluidic system. Binding of analyte to ligand causes a change in the angle of refracted light at the surface of the sensor chip, measured by the Biacore instrument in resonance units (RUs).
SGP-3 is a purified sulfoglycopeptide form of human PSGL-1 that contains the P-selectin binding determinants (See Somers et al., 2000, Cell 103, 467-479). SGP-3 was biotinylated via amine chemistry at a unique C-terminal lysine residue and immobilized on streptavidin-coated SA sensor chip. […]
The Biacore assay measures the signal in RU produced by binding of P-LE to SGP-3 in the presence and absence of inhibitors. Percent inhibition of binding is calculated by dividing the inhibited signal by the uninhibited signal subtracting this value from one then multiplying by one hundred. […] The data from this titration are plotted, RU values vs. concentration, and the IC50 is determined by extrapolation from the plot. […]

For `CC1(C)[C@@H](O[C@H]2O[C@H](C(=O)O)[C@@H](O)[C@H](O)[C@H]2O[C@@H]2O[C@H](C(=O)O)[C@@H](O)[C@H](O)[C@H]2O)CC[C@]2(C)[C@H]3C(=O)C=C4[C@@H]5C[C@@](C)(C(=O)O)CC[C@]5(C)CC[C@@]4(C)[C@]3(C)CC[C@@H]12` [Glycerrhizzin], the “percent inhibition of binding (positive control)” value was 50%.
